“Also recorded” adds a separate entry of the source.
Test system: patients with advanced and/or treatment-refractory solid tumors
Assay: Safety and tolerability: adverse events
Format: in vivo, human
[1] = TID-fasted (n = 32), All grades

O=C(Cc1cccc(OC(F)(F)F)c1)Nc1ccc(CCCCc2nnc(NC(=O)Cc3ccccn3)s2)nn1 [telaglenastat, Telaglenastat]
Patients with dose reductions (17 of 120 patients): 14%
Patients with dose interruptions (50 of 120 patients, primarily due to AEs): 42%
Maximum tolerated dose (MTD) (100–800 mg TID-fasted, 600–1,000 mg BID-fed): not reached; also recorded: not established
Abdominal distension (treatment-related AE) (BID-fed (n = 88), All grades): 2 (2.3) n (%)
Activated partial thromboplastin time prolonged (treatment-related AE) (BID-fed (n = 88), All grades): 2 (2.3) n (%)
Alanine aminotransferase increased (treatment-related AE) (BID-fed (n = 88), All grades): 14 (15.9) n (%)
Ammonia increased (treatment-related AE) (BID-fed (n = 88), All grades): 2 (2.3) n (%)
Anemia (treatment-related AE) (BID-fed (n = 88), All grades): 5 (5.7) n (%)
Aspartate aminotransferase increased (treatment-related AE) (BID-fed (n = 88), All grades): 10 (11.4) n (%)
Blood alkaline phosphatase increased (treatment-related AE) (BID-fed (n = 88), All grades): 6 (6.8) n (%)
Blood bilirubin increased (treatment-related AE) (BID-fed (n = 88), All grades): 3 (3.4) n (%)
Blood creatinine increased (treatment-related AE) (BID-fed (n = 88), All grades): 4 (4.5) n (%)
Constipation (treatment-related AE) (BID-fed (n = 88), All grades): 3 (3.4) n (%)
Decreased appetite (treatment-related AE) (BID-fed (n = 88), All grades): 8 (9.1) n (%)
Diarrhea (treatment-related AE) (BID-fed (n = 88), All grades): 2 (2.3) n (%)
Dysgeusia (treatment-related AE) (BID-fed (n = 88), All grades): 2 (2.3) n (%)
Dyspepsia (treatment-related AE) (BID-fed (n = 88), All grades): 2 (2.3) n (%)
Fatigue (treatment-related AE) (BID-fed (n = 88), All grades): 21 (23.9) n (%)
Gastroesophageal reflux disease (treatment-related AE) (BID-fed (n = 88), All grades): 2 (2.3) n (%)
Hypomagnesemia (treatment-related AE) (BID-fed (n = 88), All grades): 4 (4.5) n (%)
Hyponatremia (treatment-related AE) (BID-fed (n = 88), All grades): 2 (2.3) n (%)
Nausea (treatment-related AE) (BID-fed (n = 88), All grades): 21 (23.9) n (%)
Neuropathy peripheral (treatment-related AE) (BID-fed (n = 88), All grades): 2 (2.3) n (%)
Patients with ≥1 treatment-emergent AE (BID-fed (n = 88), All grades): 84 (95.5) n (%)
Patients with ≥1 treatment-related AE (BID-fed (n = 88), All grades): 64 (72.7) n (%)
Photophobia (treatment-related AE) (BID-fed (n = 88), All grades): 12 (13.6) n (%)
Photopsia (treatment-related AE) (BID-fed (n = 88), All grades): 2 (2.3) n (%)
Thrombocytopenia (treatment-related AE) (BID-fed (n = 88), All grades): 4 (4.5) n (%)
Vision blurred (treatment-related AE) (BID-fed (n = 88), All grades): 3 (3.4) n (%)
Vomiting (treatment-related AE) (BID-fed (n = 88), All grades): 5 (5.7) n (%)
Weight decreased (treatment-related AE) (BID-fed (n = 88), All grades): 3 (3.4) n (%)
γ-Glutamyltransferase increased (treatment-related AE) (BID-fed (n = 88), All grades): 7 (8.0) n (%)
Abdominal distension (treatment-related AE) (BID-fed (n = 88), Grade 3): 0 n (%)
Activated partial thromboplastin time prolonged (treatment-related AE) (BID-fed (n = 88), Grade 3): 0 n (%)
Alanine aminotransferase increased (treatment-related AE) (BID-fed (n = 88), Grade 3): 2 (2.3) n (%)
Ammonia increased (treatment-related AE) (BID-fed (n = 88), Grade 3): 0 n (%)
Anemia (treatment-related AE) (BID-fed (n = 88), Grade 3): 1 (1.1) n (%)
Aspartate aminotransferase increased (treatment-related AE) (BID-fed (n = 88), Grade 3): 1 (1.1) n (%)
Blood alkaline phosphatase increased (treatment-related AE) (BID-fed (n = 88), Grade 3): 1 (1.1) n (%)
Blood bilirubin increased (treatment-related AE) (BID-fed (n = 88), Grade 3): 0 n (%)
Blood creatinine increased (treatment-related AE) (BID-fed (n = 88), Grade 3): 0 n (%)
Constipation (treatment-related AE) (BID-fed (n = 88), Grade 3): 0 n (%)
Decreased appetite (treatment-related AE) (BID-fed (n = 88), Grade 3): 0 n (%)
Diarrhea (treatment-related AE) (BID-fed (n = 88), Grade 3): 0 n (%)
Dysgeusia (treatment-related AE) (BID-fed (n = 88), Grade 3): 0 n (%)
Dyspepsia (treatment-related AE) (BID-fed (n = 88), Grade 3): 0 n (%)
Fatigue (treatment-related AE) (BID-fed (n = 88), Grade 3): 0 n (%)
Gastroesophageal reflux disease (treatment-related AE) (BID-fed (n = 88), Grade 3): 0 n (%)
Hypomagnesemia (treatment-related AE) (BID-fed (n = 88), Grade 3): 0 n (%)
Hyponatremia (treatment-related AE) (BID-fed (n = 88), Grade 3): 0 n (%)
Nausea (treatment-related AE) (BID-fed (n = 88), Grade 3): 0 n (%)
Neuropathy peripheral (treatment-related AE) (BID-fed (n = 88), Grade 3): 0 n (%)
Patients with ≥1 treatment-emergent AE (BID-fed (n = 88), Grade 3): 28 (31.8) n (%)
Patients with ≥1 treatment-related AE (BID-fed (n = 88), Grade 3): 3 (3.4) n (%)
Photophobia (treatment-related AE) (BID-fed (n = 88), Grade 3): 0 n (%)
Photopsia (treatment-related AE) (BID-fed (n = 88), Grade 3): 0 n (%)
Thrombocytopenia (treatment-related AE) (BID-fed (n = 88), Grade 3): 0 n (%)
Vision blurred (treatment-related AE) (BID-fed (n = 88), Grade 3): 0 n (%)
Vomiting (treatment-related AE) (BID-fed (n = 88), Grade 3): 0 n (%)
Weight decreased (treatment-related AE) (BID-fed (n = 88), Grade 3): 0 n (%)
γ-Glutamyltransferase increased (treatment-related AE) (BID-fed (n = 88), Grade 3): 2 (2.3) n (%)
Abdominal distension (treatment-related AE) (BID-fed (n = 88), Grade 4): 0 n (%)
Activated partial thromboplastin time prolonged (treatment-related AE) (BID-fed (n = 88), Grade 4): 0 n (%)
Alanine aminotransferase increased (treatment-related AE) (BID-fed (n = 88), Grade 4): 0 n (%)
Ammonia increased (treatment-related AE) (BID-fed (n = 88), Grade 4): 0 n (%)
Anemia (treatment-related AE) (BID-fed (n = 88), Grade 4): 0 n (%)
Aspartate aminotransferase increased (treatment-related AE) (BID-fed (n = 88), Grade 4): 0 n (%)
Blood alkaline phosphatase increased (treatment-related AE) (BID-fed (n = 88), Grade 4): 0 n (%)
Blood bilirubin increased (treatment-related AE) (BID-fed (n = 88), Grade 4): 0 n (%)
Blood creatinine increased (treatment-related AE) (BID-fed (n = 88), Grade 4): 0 n (%)
Constipation (treatment-related AE) (BID-fed (n = 88), Grade 4): 0 n (%)
Decreased appetite (treatment-related AE) (BID-fed (n = 88), Grade 4): 0 n (%)
Diarrhea (treatment-related AE) (BID-fed (n = 88), Grade 4): 0 n (%)
Dysgeusia (treatment-related AE) (BID-fed (n = 88), Grade 4): 0 n (%)
Dyspepsia (treatment-related AE) (BID-fed (n = 88), Grade 4): 0 n (%)
Fatigue (treatment-related AE) (BID-fed (n = 88), Grade 4): 0 n (%)
Gastroesophageal reflux disease (treatment-related AE) (BID-fed (n = 88), Grade 4): 0 n (%)
Hypomagnesemia (treatment-related AE) (BID-fed (n = 88), Grade 4): 0 n (%)
Hyponatremia (treatment-related AE) (BID-fed (n = 88), Grade 4): 0 n (%)
Nausea (treatment-related AE) (BID-fed (n = 88), Grade 4): 0 n (%)
Neuropathy peripheral (treatment-related AE) (BID-fed (n = 88), Grade 4): 0 n (%)
Patients with ≥1 treatment-emergent AE (BID-fed (n = 88), Grade 4): 5 (5.7) n (%)
Patients with ≥1 treatment-related AE (BID-fed (n = 88), Grade 4): 0 n (%)
Photophobia (treatment-related AE) (BID-fed (n = 88), Grade 4): 0 n (%)
Photopsia (treatment-related AE) (BID-fed (n = 88), Grade 4): 0 n (%)
Thrombocytopenia (treatment-related AE) (BID-fed (n = 88), Grade 4): 0 n (%)
Vision blurred (treatment-related AE) (BID-fed (n = 88), Grade 4): 0 n (%)
Vomiting (treatment-related AE) (BID-fed (n = 88), Grade 4): 0 n (%)
Weight decreased (treatment-related AE) (BID-fed (n = 88), Grade 4): 0 n (%)
γ-Glutamyltransferase increased (treatment-related AE) (BID-fed (n = 88), Grade 4): 0 n (%)
Grade 3/4 ALT increase (BID-fed schedule): 2%
Grade 3/4 AST increase (BID-fed schedule): 1%
Incidence of treatment-related grade 3/4 AEs (BID-fed, 3/88): 3%
Abdominal distension (treatment-related AE) [1]: 0 n (%)
Activated partial thromboplastin time prolonged (treatment-related AE) [1]: 0 n (%)
